Measurements from patent US6602897B2, “m-Amino-phenylimino-imidazolidine derivatives for treating urinary incontinence” (Boehringer Ingelheim Pharma KG, priority 2000, dated 2003).
Where a name gives a salt, the structure may show the parent alone.

Experiments:
[1] = target: CYP2D6 (Homo sapiens, UniProt P10635); assay: Metabolism: breakdown of test substance by enzyme CYP2D6; type: in vitro ADME
Experimental: To determine the metabolism, the enzyme CYP2D6 was allowed to act on the test substances. After 30 minutes, a check was made to see how much of the test substance put in had been broken down by the enzyme.

[2] = system: HLM; assay: Metabolism: breakdown of test substance by HLM; type: in vitro ADME
Experimental: The rate of breakdown under the effect of the enzyme HLM/60 minutes is tested analogously.

[3] = Bioavailability after oral vs intravenous administration to fasted male rats, plasma HPLC; type: in vivo; conditions: rat, oral compared with intravenous, pooled plasma by HPLC
Experimental: In order to determine bioavailability, the test substances were administered orally to a group of 8 male rats which had been fasted. As a comparison, the test substances were administered intravenously to animals in an identical second group. 1 ml blood samples were taken from the animals of both groups at specified times after administration (10 minutes, 30 minutes, 1 hour, 2 hours, and 4 hours, and additionally after 6 hours in the case of the animals treated by oral route). The blood samples taken in each group were mixed together (8 ml). After further working up, the content of the test substances in the blood for the particular time was determined from the plasma by HPLC (High Performance Liquid Chromatography) using standard methods and compared for the two groups.

[4] = system: dog; assay: Efficacy: maximum contraction in the dog compared with noradrenalin; conditions: percentage of contraction compared with noradrenalin
Experimental: (§1) The efficacy and selectivity of the compounds is determined as follows:
(§2) The maximum contraction in the dog and the activity on the human urethra are given as percentages of contraction compared with noradrenalin. Selectivity in the dog: percentage contraction on the femoral artery in the dog at 10^−5 M—percentage contraction on the carotid artery in the dog at 10^−5 M.

[5] = system: Human Urethra; assay: Efficacy: activity on the human urethra, contraction compared with noradrenalin; conditions: percentage of contraction compared with noradrenalin
Experimental: as §1, §2

[6] = system: femoral artery in the dog / carotid artery in the dog; assay: Selectivity in the dog: contraction on femoral artery vs carotid artery; conditions: percentage contraction on femoral artery at 10^-5 M — percentage contraction on carotid artery at 10^-5 M
Experimental: as §1, §2

Chain of CYP2D6 (P10635 whole entry): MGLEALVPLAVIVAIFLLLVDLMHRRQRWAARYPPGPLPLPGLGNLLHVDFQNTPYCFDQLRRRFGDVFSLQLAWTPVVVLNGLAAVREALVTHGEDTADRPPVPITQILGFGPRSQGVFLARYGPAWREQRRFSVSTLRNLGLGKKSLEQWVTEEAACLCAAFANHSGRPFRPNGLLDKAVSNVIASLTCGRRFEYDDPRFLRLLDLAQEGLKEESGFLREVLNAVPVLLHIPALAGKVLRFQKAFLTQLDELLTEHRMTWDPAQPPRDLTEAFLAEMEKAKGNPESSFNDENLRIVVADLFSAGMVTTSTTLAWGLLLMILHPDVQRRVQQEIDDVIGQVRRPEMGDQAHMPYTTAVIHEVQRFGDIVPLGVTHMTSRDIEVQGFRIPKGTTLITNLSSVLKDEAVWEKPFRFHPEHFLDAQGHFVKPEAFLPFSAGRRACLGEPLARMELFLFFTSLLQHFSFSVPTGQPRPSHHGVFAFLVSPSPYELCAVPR

SMILES: CN(C)c1c(Br)ccc(NC2=NCCN2)c1Cl [Compound 7, 4′-bromo-2′-chloro-3′-dimethylaminophen-1′-yl-2-iminoimidazolidine]
- % Breakdown of Substrate after 30 minutes' Incubation with CYP2D6 [1]: 46.4%
- Breakdown of Substrate after 60 minutes' Incubation with HLM [2]: 55.8
- melting point: 150 to 155 °C

SMILES: Cc1c(NC2=NCCN2)cc(Cl)cc1N(C)C [Compound 4, 3′-chloro-5′-dimethylamino-6′-methylphen-1′-yl-2-iminoimidazolidine]
- bioavailability [3]: 11%
- % Breakdown of Substrate after 30 minutes' Incubation with CYP2D6 [1]: 36.5%
- Breakdown of Substrate after 60 minutes' Incubation with HLM [2]: 17.1
- Activity in the Dog (maximum contraction) [4]: 116%
- Activity on Human Urethra [5]: 137%
- Selectivity in the Dog [6]: 0.99

SMILES: CN(C)c1cccc(NC2=NCCN2)c1Cl [Compound 6, 2′-chloro-3′-dimethylaminophen-1′-yl-2-iminoimidazolidine]
- Breakdown of Substrate after 60 minutes' Incubation with HLM [2]: 7.4
- melting point: 146 to 148 °C

SMILES: Cc1c(N(C)C)cc(Cl)c(Br)c1NC1=NCCN1 (as salt: hydrochloride) [Compound 1, 2′-Bromo-3′-chloro-5′-dimethylamino-6′-methylphen-1′-yl-2-iminoimidazolidine]
- melting point: 239 to 240 °C

SMILES: CN(C)c1ccc(Br)c(NC2=NCCN2)c1Cl
- melting point: 142 to 145 °C

SMILES: Cc1c(NC2=NCCN2)cc(Br)cc1N(C)C [Compound 3, 3′-bromo-5′-dimethylamino-6′-methylphen-1′-yl-2-iminoimidazolidine]
- % Breakdown of Substrate after 30 minutes' Incubation with CYP2D6 [1]: 33.9%
- Breakdown of Substrate after 60 minutes' Incubation with HLM [2]: 17.0
- Activity in the Dog (maximum contraction) [4]: 87%
- Activity on Human Urethra [5]: 72%
- Selectivity in the Dog [6]: 0.76
- melting point: 140 to 143 °C

SMILES: Cc1c(N(C)C)cc(Cl)c(Br)c1NC1=NCCN1 [Compound 1, 2′-Bromo-3′-chloro-5′-dimethylamino-6′-methylphen-1′-yl-2-iminoimidazolidine]
- % Breakdown of Substrate after 30 minutes' Incubation with CYP2D6 [1]: 40.5%
- Breakdown of Substrate after 60 minutes' Incubation with HLM [2]: 32.1
- Activity in the Dog (maximum contraction) [4]: 109%
- Activity on Human Urethra [5]: 100%
- Selectivity in the Dog [6]: 0.92

SMILES: Cc1c(N(C)C)cc(Br)c(Br)c1NC1=NCCN1 [Compound 5, 2′-3′-dibromo-5′-dimethylamino-6′-methylphen-1′-yl-2-iminoimidazolidine]
- bioavailability [3]: 0.8%
- % Breakdown of Substrate after 30 minutes' Incubation with CYP2D6 [1]: 22.2%
- Breakdown of Substrate after 60 minutes' Incubation with HLM [2]: 22.0
- Activity in the Dog (maximum contraction) [4]: 89%
- Activity on Human Urethra [5]: 113%
- Selectivity in the Dog [6]: 0.71
